Paper PMC5667506, “Potent and selective inhibition of SH3 domains with dirhodium metalloinhibitors” (Chemical Science, 2015)
Where “and” joins values, the source holds several entries; their conditions need not be identical. Equal values may be shown once. Values belong to the substance of their own block, whether it stands above or below them. Rh2(OAc)3 = dirhodium(II) triacetate, bound to the side-chain carboxylate

Columns and labels:
Yes SH3 domain = target: T1, Yes SH3 domain (Homo sapiens, UniProt P07947); assay: ITC binding to Yes SH3 domain; conditions: Yes SH3, ITC
T1 construct: fyn, yes, lck, and src SH3 protein domains were prepared following published procedures; made in house
T1 sequence (P07947 91-152 limits assumed): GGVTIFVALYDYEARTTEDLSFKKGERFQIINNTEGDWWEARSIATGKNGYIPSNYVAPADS
Protocol: (§1) All chemical reagents were purchased from Sigma-Aldrich and were used without further purification.
(§2) Peptide synthesis. All peptides were synthesized manually or with an AAPPTEC APEX 396 Automated Multipeptide Synthesizer using standard solid-phase Fmoc protocols.1,2 Peptides were prepared as C-terminal amides using Rink amide MBHA resin (AAPPTEC) and were acetylated at the N-terminus prior to cleavage from the resin. Peptides and metallopeptides were purified by reverse-phase HPLC.
(§3) HPLC separation. Reverse-phase HPLC was performed on a Shimadzu CBM-20A instrument with Phenomenex Jupiter 4μ Proteo 90A (250 × 15 mm preparative) and Phenomenex Jupiter 4μ Proteo 90A (250 × 4.6 mm analytical) columns. The columns were eluted with a gradient of acetonitrile in water (10-90%) (flow rates of 8 mL/min and 1 mL/min for preparative and analytical columns, respectively). Trifluoroacetic acid (0.1%) was added to all eluents.
(§4) FPLC separation. Analytical FPLC was performed on an ÄKTA instrument with Superdex Peptide PE 7.5/300 column. The column was equilibrated with buffer (150 mM NaCl, 50 mM Tris, pH 7.0) at flow rate of 0.2 mL/min.
(§5) ITC analysis. ITC experiments were carried out on a VP-ITC instrument (MicroCal) at 25 °C. Titrations of 275 μM peptide into 18 μM SH3 domain proteins were used for all titrations, except for the titration of S2ERh into Lyn SH3 domain, where the lower concentrations of 69 µM S2ERh peptide and 4 µM Lyn SH3 were used to attain a c-value for the titration within the accepted limts for ITC experiments ([…]).3
(§6) Heats of dilutions were measured independently for each experiment by titrating 275 μM peptide into buffer (20 mM phosphate buffer, pH 7, 150 mM NaCl, 1 mM EDTA). All experimental data were fitted using a one set of sites binding model in Origin software (MicroCal) except for the data with Hck SH3 domain. With Hck only, the non-peptide specific binding of dirhodium tetraacetate to Hck SH3 domain could not be treated as negligible, despite the very weak interaction (88 µM), due to the larger enthalpy contribution observed for non-specific binding to this SH3 domain, so the titrations of peptide into Hck were fitted using a 2 set of sites binding model where the stoichiometry for the second set of sites was fixed at 2.0. […]
(§7) Mass spectrometry. ESI-MS was performed on a Bruker Daltonics micrOTOF instrument.
(§8) Known compounds and proteins. Several metallopeptides (S2ERh, L3ERh, R5ERh, and 13DRh) were reported previously and were prepared by known protocols;4 alkyne-diazo 3,5 3-azido-7-hydroxycoumarin6 were synthesized following reported procedures; fyn, yes, lck, and src SH3 protein domains were prepared following published procedures.5 Abl, hck, and lyn SH3 domain plasmids were adapted from the previously reported genes;7 the gene templates were obtained from Addgene, ID

Lck SH3 domain = target: T2, Lck SH3 domain (Homo sapiens, UniProt P06239); assay: ITC binding to Lck SH3 domain
T2 construct: fyn, yes, lck, and src SH3 protein domains were prepared following published procedures; made in house
T2 sequence (P06239 61-121 limits assumed): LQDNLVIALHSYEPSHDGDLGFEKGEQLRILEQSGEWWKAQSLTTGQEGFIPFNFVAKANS
Protocol: All chemical reagents were purchased from Sigma-Aldrich and were used without further purification. […]
as §5, §6
Known compounds and proteins. […]

Lyn SH3 domain = target: T3, Lyn SH3 domain (Homo sapiens, UniProt P07948); assay: ITC binding of metallopeptides to Lyn SH3 domain
T3 construct: The lyn SH3 domain was amplified by PCR using Phusion DNA polymerase; GST (N, cleaved yes); made in house; host or cells: E. coli BL21 (DE3)
T3 sequence (P07948 62-121): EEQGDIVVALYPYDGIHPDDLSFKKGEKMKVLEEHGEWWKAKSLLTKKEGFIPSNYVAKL
Excerpt: The His96 is unique among Src-family sequences, and the His78 appears only in Hck and Lck. Individual amino-acid alterations are the only factors that might distinguish the nearly identical secondary structures and peptide-binding preferences of Src-family SH3 domains (cf. Fig. 1a and b). Based on a Src-family SH3-binding sequence (VSL12),[37] known to bind with similar affinity across Src-family SH3 domains,[38] we made metallopeptides with rhodium in different sites near the beginning of the SH3-binding peptide. […] The optimal metallopeptide, S2E^Rh, bound to Lyn with 6 nM affinity. The accuracy of ITC data is reduced for C values >1000 (C = [protein]/K d). Under these conditions the distribution of data points on the isotherm reduces the precision of the global fit. Since the enthalpic contributions to binding in the formation of the complexes described in this work were high, we were able to use a low protein concentration (4 μM) which ensured that our C values were well below this upper range. […] In broad terms, the thermodynamics—favourable enthalpy and unfavourable entropy—are consistent with previous examinations of peptide–SH3 binding (see Table S1 ^† for thermodynamic data).[39] Moving the location of the rhodium center toward the N-terminus, away from the histidine, led to a drop in binding affinity. The N13D^Rh metallopeptide, a convenient negative control with the rhodium center too far for histidine interactions, binds with micromolar activity, similar to simple SH3 binding of the parent peptide. We conclude that the vast affinity improvement is due to rhodium coordination to unique histidine residue(s).
as §1, §2
as §3, with “eluents. […]” for “eluents.”
as §5, §6, §7
Known compounds and proteins. Several metallopeptides (S2ERh, L3ERh, R5ERh, and 13DRh) were reported previously and […]

Abl SH3 domain = target: T4, Abl SH3 domain (Homo sapiens, UniProt P00519); assay: ITC binding to Abl SH3 domain
T4 construct: The abl SH3 domain was amplified by PCR using Phusion DNA polymerase; GST (N, cleaved yes); made in house; host or cells: E. coli BL21 (DE3)
T4 sequence (P00519 60-121): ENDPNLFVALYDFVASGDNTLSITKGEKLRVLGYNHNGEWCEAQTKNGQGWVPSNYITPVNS
Protocol: as §1, §2, §3, §4, §5, §6, §7, §8

Kd (Yes SH3 domain; 25 °C, read-out: SH3 Kd): 610 nM
Substance: AcVELARRPLPPLPN-NH2 (Ac-VELARRPLPPLPN-NH2; also: Glu2 side-chain carboxylate bound to Rh2(OAc)3) [S2E^Rh, rhodium(II) metallopeptide made from S2E peptide (Ac…-NH2) and Rh2(tfa)(OAc)3]

Kd (Lck SH3 domain; 25 °C): 481 nM
Kd (Lyn SH3 domain; 25 °C): 6 nM and 6.1 nM
Kd (Abl SH3 domain; 25 °C): 5750 nM
Substance: AcVELARRPLPPLPN-NH2 (Ac-VE(Rh2(OAc)3)LARRPLPPLPN-NH2; also: metal complex: Glu2 carboxylate bound to dirhodium(II) triacetate) [S2E^Rh, rhodium(II) metallopeptide made from S2E peptide (Ac…-NH2) and Rh2(tfa)(OAc)3]

Stoichiometry (Lck SH3 domain): 1.1
-TΔS (Lck SH3 domain; 25 °C): 2.6 kcal/mol
ΔG (Lck SH3 domain; 25 °C): -8.6 kcal/mol
ΔH (Lck SH3 domain; 25 °C): -11.2 kcal/mol
Stoichiometry (Yes SH3 domain): 0.79
-TΔS (Yes SH3 domain; 25 °C): 9.1 kcal/mol
ΔG (Yes SH3 domain; 25 °C): -8.5 kcal/mol
ΔH (Yes SH3 domain; 25 °C): -17.6 kcal/mol
Stoichiometry (Lyn SH3 domain): 1.1
-TΔS (Lyn SH3 domain; 25 °C): 2.7 kcal/mol
ΔG (Lyn SH3 domain; 25 °C): -11.2 kcal/mol
ΔH (Lyn SH3 domain; 25 °C): –13.9 kcal mol-1
ΔH (Lyn SH3 domain; 25 °C, listed as S2ERh): -13.9 kcal/mol
Stoichiometry (Abl SH3 domain): 1.5
-TΔS (Abl SH3 domain; 25 °C): 10.6 kcal/mol
ΔG (Abl SH3 domain; 25 °C): -7.1 kcal/mol
ΔH (Abl SH3 domain; 25 °C): -17.8 kcal/mol
Substance: AcVELARRPLPPLPN-NH2 [S2E^Rh]
